Experimental data from US20250051276A1 (priority 2021, published 2025).

What was measured:
[1] = biological target: T1, 5-HT2A (Homo sapiens, UniProt P28223); assay: Serotonin 5-HT2A in vitro radioligand binding competition assay; set-up: purchased Epics Therapeutics S.A. (Belgium) FAST-0505B; host or cells: membrane extracts; conditions: radiotracer [3H]-DOI, membrane extracts
Description: Serotonin 5-HT2A In Vitro Radioligand Binding Competition Assay. The 5-HT2A radioligand binding competition assay was performed at Epics Therapeutics S.A. (Belgium, FAST-0505B) using conventional methods. Briefly, competition binding was performed in duplicate in the wells of a 96 well plate (Master Block, Greiner, 786201) containing binding buffer (optimized for each receptor), membrane extracts (amount of protein/well optimized for each receptor), radiotracer [^3H]-DOI (final concentration optimized for each receptor) and test compound. Nonspecific binding was determined by co-incubation with 200-fold excess of cold competitor. The samples were incubated in a final volume of 0.1 ml at a temperature and for a duration optimized for each receptor and then filtered over filter plates. Filters were washed six times with 0.5 ml of ice-cold washing buffer (optimized for each receptor) and 50 µl of Microscint 20 (Packard) were added in each well. The plates were incubated 15 min on an orbital shaker and then counted with a TopCount™ for 1 min/well.

[2] = biological target: T1, 5-HT2A; assay: Serotonin 5-HT2A in vitro cellular IPOne agonism assay; type: cell-based; set-up: host or cells: CHO-K1; conditions: CHO-K1 cells, IPOne HTRF, agonist mode
Description: (§1) Serotonin 5-HT2A In Vitro Cellular IPOne Agonism Assay. The 5-HT2A IPOne HTRF assay was performed at Epics Therapeutics S.A. (Belgium, FAST-0505I) using conventional methods. Briefly, CHO-K1 cells expressing human recombinant 5-HT2A receptor grown to mid-log phase in culture media without antibiotics were detached with PBS-EDTA, centrifuged, and resuspended in medium without antibiotics buffer. 20,000 cells were distributed in a 96 well plate and incubated overnight at 37° C. with 5% CO2.
For agonist testing, the medium was removed and 20 μl of assay buffer plus 20 μl of test compound or reference agonist are added in each well. The plate is incubated for 60 min. at 37° C. with 5% CO2.
(§2) After addition of the lysis buffer containing IP1-d2 and anti-IP1 cryptate detection reagents, plates were incubated 1-hour at room temperature, and fluorescence ratios were measured according to the manufacturer specification, with the HTRF kit.

[3] = system: 5HT2A sensor; conditions: cited from earlier work
[4] = system: rat cortical neurons; assay: Neurite outgrowth in primary neuronal cultures assay; type: cell-based; set-up: key: A: Statistically significant mean increase as a percent of DMSO control at 10 μM or less; B: No statistically significant mean increase as a percent of DMSO control at 10 μM or less; conditions: 72 h, vs DMSO control, 10 μM or less
Description: Neurite Outgrowth in Primary Neuronal Cultures Assay. Changes in the pattern of neurite outgrowth have been implicated in psychiatric and neurodegenerative disorders as well as traumatic injuries. The discovery of new compounds that can positively affect neuritogenesis are important for developing new therapeutics for neurological diseases. Measurement of neurite outgrowth of rat cortical neurons using an automated image-based assay was used to determine the neuroplastic effects of the compounds of the present disclosure. The neurite outgrowth assay was performed at Neurofit SAS (France) as described below.
Pregnant Wistar rats (Janvier; France) were used for the study. They were delivered 6 days before their use. Upon arrival at Neurofit animal facility, they were housed one per cage and maintained in a room with controlled temperature (21-22° C.) and a reversed light-dark cycle (12 h/12 h; lights on: 17:30-05:30; lights off: 05:30-17:30) with food and water available ad libitum.
Female Wistar rats of 17 days gestation were killed by cervical dislocation and the fetuses were removed from the uterus. Their brains were placed in ice-cold medium of Leibovitz (L15, Gibco, Fisher bioblock, France). Cortices were dissected and meninges were carefully removed. The cortical neurons were dissociated by trypsinization for 30 min at 37° C. (trypsin-EDTA, Gibco) in presence of 0.1 mg/ml DNAse I (Roche, France). The reaction was stopped by addition of Dulbecco's Modified Eagle Medium (DMEM; Gibco) with 10% of fetal bovine serum (FBS; Gibco). The suspension was triturated with a 10-ml pipette and using a needle syringe 21 G and centrifuged at 350×g for 10 min at room temperature. The pellet of dissociated cells was resuspended in a medium consisting of Neurobasal (Gibco) supplemented with 2% B27 supplement (Gibco), 0.5 mM L-Glutamine (Gibco), an antibiotic-antimicotic mixture. Viable cells were counted in a Neubauer cytometer using the trypan blue exclusion test (Sigma). Cells were seeded at a density of 10000 cells per well in 96-well plate (Costar) precoated with poly-L-lysine. Test compound at different concentrations were added to the cultures. Donepezil (positive control) was tested at 250 nM.
After 72 h (3 days) of plating, cultures were fixed with paraformaldehyde in PBS (4%, Sigma) for 30 min at 4° C. Then, cells were successively permeabilized with 0.1% Triton X100 for 30 min, saturated with PBS containing 3% of BSA and were incubated 1 h with anti-beta III tubulin antibody (Sigma) at 1/10 000 in PBS containing 0.5% of BSA. Cells were washed three times with PBS containing 0.5% of BSA, and they were incubated 1 h with goat anti-mouse antibody coupled with AF488 (Invitrogen A11001) diluted at 1/1000 in PBS containing 0.5% of BSA. Finally, nuclei were staining with DAPI 1 mg/ml at 1/1000 in PBS containing 0.5% of BSA. After rinsing with PBS, the plate was filmed and neurite networks were examined and analyzed using High-Content Screening (CellInsight, Thermo Scientific). The average number of neurites per neuron and the average total length of neurites per neuron were the main parameters analyzed. Analysis of data was performed using analysis of variance (ANOVA). The Fisher's Protected Least Significant Difference test was used for multiple comparisons. A p value ≤0.05 was considered significant. The software used is StatView 5.0 from SAS Institut.

[5] = biological target: T1, 5-HT2A; assay: Serotonin 5-HT2A in vitro cellular IPOne antagonism assay; type: cell-based; set-up: host or cells: CHO-K1; conditions: CHO-K1 cells, IPOne HTRF, reference agonist a-Me-5HT; read-out: 5-HT2A IPOne Antagonist Activity
Description: as §1, with “IPOne Antagonism” for “IPOne Agonism”, “5-HT2A TPOne” for “5-HT2A IPOne”, “FAST-0505I) in antagonism mode” for “FAST-0505I)”, “with […]” for “with 5%”
For antagonist testing, a reference agonist a-Me-5HT was added and fluorescence signal monitored for several minutes, followed by addition of 20 μl of assay buffer plus 20 μl of test compound or reference antagonist ketanserin, in each well. The plate was incubated for 60 min. at 37° C. with 5% CO2.
as §2

[6] = system: 5HT2A sensor; conditions: cited from earlier work; remark: listed apart in the source

T1 sequence (P28223 whole entry): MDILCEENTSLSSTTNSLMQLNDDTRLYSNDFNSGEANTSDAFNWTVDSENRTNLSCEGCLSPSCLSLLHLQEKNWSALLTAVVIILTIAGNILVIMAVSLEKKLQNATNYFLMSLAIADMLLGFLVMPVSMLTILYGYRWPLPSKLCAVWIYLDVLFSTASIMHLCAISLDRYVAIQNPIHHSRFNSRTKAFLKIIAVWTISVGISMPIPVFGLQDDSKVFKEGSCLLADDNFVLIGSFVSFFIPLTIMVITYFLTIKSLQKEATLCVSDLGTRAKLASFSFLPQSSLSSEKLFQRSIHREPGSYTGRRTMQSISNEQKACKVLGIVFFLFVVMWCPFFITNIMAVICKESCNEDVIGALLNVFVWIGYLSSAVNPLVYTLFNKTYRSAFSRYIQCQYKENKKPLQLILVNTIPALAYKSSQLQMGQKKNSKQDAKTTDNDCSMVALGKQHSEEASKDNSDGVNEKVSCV

C[C@@H](N)Cn1ccc2nc(OCc3ccccc3)ccc21 [Compound 2, (R)-1-(5-(benzyloxy)-1H-pyrrolo[3,2-b]pyridin-1-yl)propan-2-amine]
IC50 [1]: > 10000 nM
EC50 [2]: > 10000 nM

COc1cc(CC(C)N)c(OC)cc1I (stereo not drawn) [DOI]
activation of the 5HT2A sensor assay in agonist mode [3]: activate the 5HT2A sensor assay in agonist mode

C[C@H](Cn1ccc2nc(OCc3ccccc3)ccc21)N(C)C [Compound 1, (R)-1-(5-(benzyloxy)-1H-pyrrolo[3,2-b]pyridin-1-yl)-N,N-dimethylpropan-2-amine]
IC50 [1]: 101 to 1000 nM
EC50 [2]: > 10000 nM
Increase in Neurite Length [4]: A
Increase in Neurite Number [4]: A
Increase in Number of Branchpoints [4]: A
IC50 [5]: 101 to 1000 nM

CN[C@H](C)Cc1ccc2c(c1)OCO2 [L-MDMA]
activation of the 5HT2A sensor assay in agonist mode [3]: do not activate the 5HT2A sensor assay in agonist mode

C[C@H](Cn1ccc2cc(OCc3ccccc3)ccc21)N1CCCC1 [Compound 12, (R)-5-(benzyloxy)-1-(2-(pyrrolidin-1-yl)propyl)-1H-indole]
IC50 [1]: 1000 to 10000 nM
EC50 [2]: > 10000 nM
Increase in Neurite Length [4]: A
Increase in Neurite Number [4]: A
Increase in Number of Branchpoints [4]: B
IC50 [5]: 101 to 1000 nM

C[C@H](Cn1ccc2cc(OCc3cccc(F)c3)ccc21)N(C)C [Compound 9, (R)-1-(5-((3-fluorobenzyl)oxy)-1H-indol-1-yl)-N,N-dimethylpropan-2-amine]
IC50 [1]: 101 to 1000 nM
EC50 [2]: > 10000 nM
Increase in Neurite Length [4]: A
Increase in Neurite Number [4]: A
Increase in Number of Branchpoints [4]: A
IC50 [5]: 10 to 100 nM

CN(C)CCc1c[nH]c2ccccc12 [DMT, N,N-dimethyltryptamine]
activation of the 5HT2A sensor assay in agonist mode [3]: activate the 5HT2A sensor assay in agonist mode

C[C@@H](N)Cn1ccc2cc(OCc3cccc(F)c3)ccc21 [Compound 6, (R)-1-(5-((3-fluorobenzyl)oxy)-1H-indol-1-yl)propan-2-amine]
IC50 [1]: 101 to 1000 nM
EC50 [2]: 1000 to 10000 nM
Increase in Neurite Length [4]: A
Increase in Neurite Number [4]: B
Increase in Number of Branchpoints [4]: A
IC50 [5]: 101 to 1000 nM

C[C@H](Cn1ccc2cc(OCc3ccccc3)ccc21)N(C)C [Compound 3, (R)-1-(5-(benzyloxy)-1H-indol-1-yl)-N,N-dimethylpropan-2-amine]
IC50 [1]: 101 to 1000 nM
EC50 [2]: > 10000 nM
Increase in Neurite Length [4]: A
Increase in Neurite Number [4]: B
Increase in Number of Branchpoints [4]: B
IC50 [5]: 10 to 100 nM

CCN(CC)C(=O)[C@@H]1C=C2c3cccc4[nH]c(Br)c(c34)C[C@H]2N(C)C1 [BOL148]
activation of the 5HT2A sensor assay in agonist mode [3]: do not activate the 5HT2A sensor assay in agonist mode
competition with 5-HT in the 5HT2A sensor assay in antagonist mode [6]: can compete with 5HT binding to 5HT2A

O=C(c1ccc(F)cc1)C1CCN(CCn2c(=O)[nH]c3ccccc3c2=O)CC1 [Ketanserin]
activation of the 5HT2A sensor assay in agonist mode [3]: do not activate the 5HT2A sensor assay in agonist mode
competition with 5-HT in the 5HT2A sensor assay in antagonist mode [6]: can compete with 5HT binding to 5HT2A

C[C@H](Cn1ccc2cc(OCc3ccc(F)cc3)ccc21)N(C)C [Compound 8, (R)-1-(5-((4-fluorobenzyl)oxy)-1H-indol-1-yl)-N,N-dimethylpropan-2-amine]
IC50 [1]: 10 to 100 nM
EC50 [2]: > 10000 nM
Increase in Neurite Length [4]: A
Increase in Neurite Number [4]: A
Increase in Number of Branchpoints [4]: A
IC50 [5]: < 10 nM

CCN(CC)[C@H](C)Cn1ccc2cc(OCc3ccccc3)ccc21 [Compound 11, (R)-1-(5-(benzyloxy)-1H-indol-1-yl)-N,N-diethylpropan-2-amine]
IC50 [1]: 1000 to 10000 nM
EC50 [2]: > 10000 nM
Increase in Neurite Length [4]: A
Increase in Neurite Number [4]: A
Increase in Number of Branchpoints [4]: A
IC50 [5]: 101 to 1000 nM

C[C@H](Cn1ccc2cc(OCc3ccccc3F)ccc21)N(C)C [Compound 10, (R)-1-(5-((2-fluorobenzyl)oxy)-1H-indol-1-yl)-N,N-dimethylpropan-2-amine]
IC50 [1]: 10 to 100 nM
EC50 [2]: > 10000 nM
Increase in Neurite Length [4]: A
Increase in Neurite Number [4]: A
Increase in Number of Branchpoints [4]: A
IC50 [5]: 101 to 1000 nM

CN[C@H](C)Cn1ccc2cc(OCc3ccccc3)ccc21 [Compound 4, (R)-1-(5-(benzyloxy)-1H-indol-1-yl)-N-methylpropan-2-amine]
IC50 [1]: 1000 to 10000 nM
EC50 [2]: > 10000 nM
Increase in Neurite Length [4]: A
Increase in Neurite Number [4]: A
Increase in Number of Branchpoints [4]: A
IC50 [5]: 101 to 1000 nM

CCN(CC)C(=O)[C@@H]1C=C2c3cccc4[nH]cc(c34)C[C@H]2N(C)C1 [LSD]
activation of the 5HT2A sensor assay in agonist mode [3]: activate the 5HT2A sensor assay in agonist mode

C[C@@H](N)Cn1ccc2cc(OCc3ccccc3F)ccc21 [Compound 7, (R)-1-(5-((2-fluorobenzyl)oxy)-1H-indol-1-yl)propan-2-amine]
IC50 [1]: 1000 to 10000 nM
EC50 [2]: 1000 to 10000 nM
Increase in Neurite Length [4]: B
Increase in Neurite Number [4]: A
Increase in Number of Branchpoints [4]: A

C[C@@H](N)Cn1ccc2cc(OCc3ccc(F)cc3)ccc21 [Compound 5, (R)-1-(5-((4-fluorobenzyl)oxy)-1H-indol-1-yl)propan-2-amine]
IC50 [1]: 101 to 1000 nM
EC50 [2]: 1000 to 10000 nM
Increase in Neurite Length [4]: B
Increase in Neurite Number [4]: B
Increase in Number of Branchpoints [4]: B
IC50 [5]: 101 to 1000 nM
